Patent publication US5747472A, “Therapeutic methods for using ARA-G derivatives” (Glaxo Wellcome Inc., priority 1990, dated 1998)
In brackets after ≈: the same amount, converted by molar mass. Entries after “also recorded” stand apart in the source; their conditions may differ. Like-named read-outs stand apart in the source and are kept apart here.

Experiments:
[1] = Solubility in PBS at 25° C.; assay type: physicochemical; conditions: aqueous buffer, phosphate buffered saline
Molt 4 cells = test: Inhibition of the growth of T cells (Molt 4); assay type: cell-based; conditions: Homo sapiens
Experimental: (§1) The compounds of the invention were tested for inhibition of the growth of T cells (Molt 4) compared to B cells (IM9) by the method of Averett, D., Journal of Virological Methods, 23, (1989), 263-276.

IM9 cells = test: Inhibition of the growth of B cells (IM9); assay type: cell-based; conditions: Homo sapiens; for IC50: IM-9; for activity at 10 µM: IM-9, printed in parentheses beside IC50 >10 μM, read-out: % of Control growth
Experimental: as §1

[2] = test system: human T-cell line (Molt 4) in contrast to a human B-cell line (IM9); test: Selective inhibition of T cell growth, Molt 4 compared to IM9; assay type: cell-based; conditions: Molt 4 vs IM9
Experimental: as §1

[3] = Bioavailability of araG after oral administration to Cynomolgus monkeys (plasma, urine); assay type: in vivo; conditions: fasted Cynomolgus monkeys, individual animals; for Cmax: read-out: Plasma araG Peak Level
Experimental: AraG and compounds of the invention were administered orally to Cynomolgus monkeys which had been fasted for eight hours. Each compound was given to two monkeys. The dosage was 94 μmol/kg which is equivalent to 27 mg/kg araG. Blood samples were taken over the following 24 hours, and urine was collected over the same 24 hours. Concentrations of araG in plasma extracts and urine were determined by reverse phase HPLC.

[4] = Water solubility (statement); assay type: physicochemical; conditions: in words
[5] = Bioavailability after oral dosing in primates (statement); assay type: in vivo; conditions: in words
[6] = test system: T cells compared to B cells; T-leukemic cells; conditions: cited from earlier work

## COc1nc(N)nc2c1ncn2[C@@H]1O[C@H](COC(C)=O)[C@@H](O)[C@@H]1O [Example 1b, 9-(5-O-Acetyl-β-D-arabinofuranosyl)-2-amino-6-methoxy-9H-purine]
[1]
  solubility: 92 mM (≈ 31.2 mg/mL)

## COc1nc(N)nc2c1ncn2[C@@H]1O[C@H](CO)[C@@H](O)[C@@H]1O [compound 1, 2-Amino-6-methoxy-9-(β-D-arabinofuranosyl)-9H-purine]
Molt 4 cells
  IC50: 0.8 ± 0.1 µM
IM9 cells
  IC50: > 10 µM
  activity at 10 µM: 85%
[2]
  selective inhibition of growth of T-cell line vs B-cell line: selectively inhibits the growth of a human T-cell line (Molt 4) in contrast to a human B-cell line (IM9)

## COc1nc(N)nc2c1ncn2[C@@H]1O[C@H](COC(C)=O)[C@@H](OC(C)=O)[C@@H]1O [Example 2j, 9-(3,5-di-O-Acetyl-β-D-arabinofuranosyl)-2-amino-6-methoxy-9H-purine]
[1]
  solubility: 38 mM (≈ 14.5 mg/mL)

## Nc1nc2c(ncn2[C@@H]2O[C@H](CO)[C@@H](O)[C@@H]2O)c(=O)[nH]1 [araG, arabinofuranosyl guanine]
Molt 4 cells
  IC50: 1.4 ± 0.08 µM
IM9 cells
  IC50: > 10 µM
  activity at 10 µM: 84%
[1]
  solubility: 4 mM (≈ 1.13 mg/mL)
[3]; 94 μmol/kg, plasma, 420 min
  Plasma araG AUC 0.7 hrs: 21.1 µM·h
[3]; 94 μmol/kg, plasma
  Cmax: 4.6 µM
[3]; 94 μmol/kg, urine over 24 hours, 1440 min
  Urine % Recovered as araG: 4.2%
[3]; cynomolgus monkey, plasma, po, 94 umol/kg, plasma, read-out: Plasma araG AUC 0.7 hrs
  AUC(0-t) at 7 h: 20.8 µM·h
[3]; cynomolgus monkey, plasma, po, 94 umol/kg, plasma
  Cmax: 6 µM
[3]; cynomolgus monkey, urine, po, 94 umol/kg, urine over 24 hours, read-out: Urine % Recovered as araG
  dose excreted at 24 h: 3.9%
[4]
  water solubility: limited water solubility
[5]
  oral bioavailability: low bioavailability after oral dosing in primates
[6]
  selective inhibition of growth of T cells / selective cytotoxic activity for T-leukemic cells: selectively inhibits the growth of T cells compared to B cells; also recorded: selective cytotoxic activity for T-leukemic cells
